According to patent US8455399B2, “N-(4-perfluoroalkyl-phenyl)-4-triazolyl-benzamides as insecticides” (Syngenta Crop Protection LLC, priority 2009, dated 2013):

Experiments:
Type in all cases: in vivo
[1] = system: Spodoptera littoralis; experiment: Spodoptera littoralis (Egyptian cotton leafworm) leaf disc spray test; details: foliar, 72 h, 200 ppm sprayed on cotton leaf discs, 5 L1 larvae, mortality, feeding behavior, growth regulation 3 days after treatment
Description: Spodoptera Littoralis (Egyptian Cotton Leafworm): Cotton leaf discs were placed on agar in a 24-well microtiter plate and sprayed with test solutions at an application rate of 200 ppm. After drying, the leaf discs were infested with 5 L1 larvae. The samples were checked for mortality, feeding behavior, and growth regulation 3 days after treatment (DAT).

[2] = system: Heliothis virescens; experiment: Heliothis virescens (tobacco budworm) egg/artificial diet test; details: 96 h, 200 ppm (concentration in well 18 ppm), eggs 0-24 h old on artificial diet, egg mortality, larval mortality, growth regulation after 4 days
Experimental: Heliothis Virescens (Tobacco Budworm): Eggs (0-24 h old) were placed in 24-well microtiter plate on artificial diet and treated with test solutions at an application rate of 200 ppm (concentration in well 18 ppm) by pipetting. After an incubation period of 4 days, samples were checked for egg mortality, larval mortality, and growth regulation.

[3] = system: Plutella xylostella; experiment: Plutella xylostella (diamond back moth) artificial diet test; details: 144 h, 200 ppm (concentration in well 18 ppm), L2 larvae, larval mortality and growth regulation after 6 days
Experimental: Plutella Xylostella (Diamond Back Moth): 24-well microtiter plate (MTP) with artificial diet was treated with test solutions at an application rate of 200 ppm (concentration in well 18 ppm) by pipetting. After drying, the MTP's were infested with L2 larvae (7-12 per well). After an incubation period of 6 days, samples were checked for larval mortality and growth regulation.

[4] = system: Diabrotica balteata; experiment: Diabrotica balteata (corn root worm) artificial diet test; details: 120 h, 200 ppm (concentration in well 18 ppm), L2 larvae, larval mortality and growth regulation after 5 days
Experimental: Diabrotica Balteata (Corn Root Worm): A 24-well microtiter plate (MTP) with artificial diet was treated with test solutions at an application rate of 200 ppm (concentration in well 18 ppm) by pipetting. After drying, the MTP's were infested with L2 larvae (6-10 per well). After an incubation period of 5 days, samples were checked for larval mortality and growth regulation.

[5] = system: Thrips tabaci; experiment: Thrips tabaci (onion thrips) leaf disc spray test; details: foliar, 168 h, 200 ppm sprayed on sunflower leaf discs, population of mixed ages, mortality after 7 days
Experimental: Thrips Tabaci (Onion Thrips): Sunflower leaf discs were placed on agar in a 24-well microtiter plate and sprayed with test solutions at an application rate of 200 ppm. After drying, the leaf discs were infested with an […] population of mixed ages. After an incubation period of 7 days, samples were checked for mortality.

[6] = system: Tetranychus urticae; experiment: Tetranychus urticae (two-spotted spider mite) leaf disc spray test; details: foliar, 192 h, 200 ppm sprayed on bean leaf discs, mite populations of mixed ages, egg, larval and adult mortality 8 days later
Description: Tetranychus Urticae (Two-Spotted Spider Mite): Bean leaf discs on agar in 24-well microtiter plates were sprayed with test solutions at an application rate of 200 ppm. After drying, the leaf discs are infested with mite populations of mixed ages. 8 days later, discs are checked for egg mortality, larval mortality, and adult mortality.

Measured: pest or weed control at 200 ppm

CCc1cc(C(F)(C(F)(F)F)C(F)(F)C(F)(F)F)cc(C)c1NC(=O)c1ccc(-n2cncn2)c(NC(=O)c2ccc(F)cc2Cl)c1 (stereo not drawn) [D4, 3-(2-Chloro-4-fluorobenzoylamino)-N-[2-ethyl-4-(1,2,2,3,3,3-hexafluoro-1-trifluoromethylpropyl)-6-methylphenyl]-4-(1,2,4-triazol-1-yl)benzamide]
≥ 80%: all assays above

CCc1cc(C(F)(C(F)(F)F)C(F)(F)C(F)(F)F)cc(C)c1NC(=O)c1ccc(-n2cncn2)c(NC(=O)c2ccc(F)cc2)c1 (stereo not drawn) [D6, 3-(4-Fluorobenzoylamino)-N-[2-ethyl-4-(1,2,2,3,3,3-hexafluoro-1-trifluoromethyl-propyl)-6-methylphenyl]-4-(1,2,4-triazol-1-yl)benzamide]
≥ 80%: all assays above

O=C(Nc1c(Br)cc(C(F)(C(F)(F)F)C(F)(F)C(F)(F)F)cc1Br)c1ccc(-n2cncn2)c(NC(=O)c2ccc(F)cc2Cl)c1 (stereo not drawn) [D9, 3-(2-Chloro-4-fluorobenzoylamino)-N-[2,6-dibromo-4-(1,2,2,3,3,3-hexafluoro-1-trifluoromethylpropyl)phenyl]-4-(1,2,4-triazol-1-yl)benzamide]
≥ 80%: all assays above

Cc1c(C(=O)Nc2cc(C(=O)Nc3c(Br)cc(C(F)(C(F)(F)F)C(F)(F)C(F)(F)F)cc3Br)ccc2-n2cncn2)cccc1[N+](=O)[O-] (stereo not drawn) [D10, 3-(2-Methyl-3-nitrobenzoylamino)-N-[2,6-dibromo-4-(1,2,2,3,3,3-hexafluoro-1-trifluoromethylpropyl)phenyl]-4-(1,2,4-triazol-1-yl)benzamide]
≥ 80%: all assays above
